According to PubChem BioAssay (NCI):
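Here, GI50 denotes the concentration required for 50% inhibition of growth. TGI marks complete inhibition of growth.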

Columns and labels:
Experiment in all cases: NCI anticancer screen, dose series, 384-well format
[1] = system: 786-0 renal
[2] = system: A498 renal
[3] = system: BT-549 breast
[4] = system: CAKI-1 renal
[5] = system: CCRF-CEM leukemia
[6] = system: DU-145 prostate
[7] = system: IGROV1 ovarian
[8] = system: MDA-MB-435 melanoma
[9] = system: NCI-H322M lung
[10] = system: OVCAR-3 ovarian
[11] = system: SNB-19 CNS
[12] = system: SNB-75 CNS
[13] = system: UO-31 renal

## CNCc1ccc(C)c(NC(=O)c2ccc(Nc3nc(-c4ccccc4)c4ccccc4n3)cc2)c1
[1]
  GI50: 1500 nM
  TGI: 2840 nM
[2]
  GI50: 1630 nM
  TGI: 3000 nM
[3]
  GI50: 1700 nM
  TGI: 3090 nM
[4]
  GI50: 420 nM
  TGI: 1360 nM
[5]
  GI50: 1580 nM
  TGI: 2940 nM
[6]
  GI50: 1930 nM
  TGI: 3480 nM
[7]
  GI50: 1810 nM
  TGI: 3600 nM
[8]
  GI50: 1910 nM
  TGI: 3340 nM
[9]
  GI50: 1740 nM
  TGI: 3140 nM
[10]
  GI50: 1780 nM
  TGI: 3200 nM
[11]
  GI50: 1860 nM
  TGI: 3310 nM
[12]
  GI50: 1850 nM
  TGI: 3300 nM
[13]
  GI50: 1970 nM
  TGI: 3400 nM
